Our source for the electrical conductivity values is the NIST ThermoML archive (doi:10.1021/je301347v).

Numbers after ± are expanded uncertainties.

For the series the following is noted: 101 kPa, Liquid, Voltage change across transformer (no electrode).

With `CCCC[n+]1ccccc1.F[B-](F)(F)F` [1-butylpyridinium tetrafluoroborate], the electrical conductivity was 0.181 ± 0.0036 S/m (293.15 K), 0.321 ± 0.006 S/m (303.15 K), 0.519 ± 0.01 S/m (313.15 K) and 0.785 ± 0.016 S/m (323.15 K).
As to `CCCC[n+]1cccc(C)c1.F[B-](F)(F)F` [1-butyl-3-methylpyridinium tetrafluoroborate], the electrical conductivity (293.15 K) was 0.155 ± 0.0016 S/m, the electrical conductivity (303.15 K) worked out at 0.281 ± 0.003 S/m, the electrical conductivity (313.15 K) came out at 0.461 ± 0.005 S/m and the electrical conductivity (323.15 K) was 0.704 ± 0.007 S/m.
The matching figures for `CCCC[n+]1ccc(C)cc1.F[B-](F)(F)F` [1-butyl-4-methylpyridinium tetrafluoroborate]: 0.1318 ± 0.0013 S/m, 0.254 ± 0.003 S/m, 0.439 ± 0.004 S/m and 0.687 ± 0.007 S/m.
